The assay relates to TFEB. Put plainly: TFEB nuclear translocation assay, HeLa wt cells. Format: cell-based. Particulars: 2 hrs compound treatment, Table 1 does not say HeLa wt or TRPML1 KO. The method, then:
For the TFEB nuclear translocation assay, HeLa wt or HeLa TRPML1 KO cells were plated at 2700 cells/well into black-walled, 384-well Cell carrier Ultra tissue culture treated plates in complete media and incubated overnight. The next day, cells are treated for 2 hrs with compounds and incubated at 37° C. Cells were then fixed for 30 minutes at room temperature in 4% final PFA and washed five times with 90 μL PBS. PBS is aspirated from the wells and the cells are blocked with 7.5 μL blocking buffer (1:1 PBS/Odyssey block buffer containing 0.1% triton x-100 and 1% goat serum). After 30-60 minutes of block, 7.5 μL of primary anti-TFEB (rabbit) antibody is added for a final dilution of 1:200 antibody in 15 μL blocking buffer. Plates are incubated overnight at 4° C. The following day, plates are washed again into PBS, 90 μL with 5 washes, all PBS is aspirated from the wells and the cells are incubated for 1 hr in 1:1000 goat-anti rabbit Alexa 488 secondary antibody, also containing 10 μg/mL Hoechst 33342. After the 1 hr room temperature incubation, plates are washed a final time into PBS, sealed with foil and imaged with an automated epifluorescence microscopy (PerkinElmer Operetta CLS). Four different fields were imaged per well using ×20 magnification for DAPI and FITC filter sets. Images were quantified using PerkinElmer Harmony software, briefly: apply flatfield correction (basic/advanced) for input images. Use the Find Nuclei building block with channel set at Hoechst to find the nuclei. Use the Find cytoplasm building block with channel set to Alexa 488 to find the cytoplasm. Use select cell region with Channel set at Alexa 488 and region of interest as Nuclei and define outer border at 0 μm and inner at 45 μm to cover complete nuclei. Use select cell region with Channel set at Alexa 488 and region of interest as ring region and define outer border at −5 μm and inner at 0 μm to define a ring around the nucleus. Use the find calculate intensity parameter to calculate intensity of the nuclear region and the ring region. Define results as Number of nuclei and ratio of A/B where A is Intensity of Nuclei and B is intensity of the ring region.
The compound numbers correspond to the compound numbers above in Tables A or B. Compounds having an activity designated as “++++” provided an AC50 of ≤2.00 μM; compounds having an activity designated as “+++” provided an AC50 of 2.01-8.00 μM; compounds having an activity designated as “++” provided an AC50 of 8.01-9.99 μM; and compounds having an activity designated as “+” provided an AC50 of ≥10.00 μM.

Each structure is given as a SMILES string. Where only a bound is given, the exact number is not on record here.

With `Cc1ccc(S(=O)(=O)C(C)c2cccc(F)c2N2CCC(CN3C4CCC3COC4)CC2)cc1` (single isomer, unassigned) [Compound A-965, 8-((1-(2-fluoro-6-(1-tosylethyl)phenyl)piperidin-4-yl)methyl)-3-oxa-8-azabicyclo[3.2.1]octane], the AC50 is at least 10000 nM.

Turning to `CP(C)(=O)c1ccc(S(=O)(=O)Nc2ccccc2N2CCC(c3c(F)cccc3F)CC2)cc1` [Compound A-177, N-{2-[4-(2,6-difluorophenyl)piperidin-1-yl]phenyl}-4-(dimethylphosphoryl)benzene-1-sulfonamide], for the setting “Homo sapiens, HeLa, 2 h”, the AC50 was at least 10000 nM.

Under “Homo sapiens, HeLa, 2 h”, `O=S(=O)(Nc1cccc(N2CCC(c3ccc(Cl)cc3F)CC2)c1)c1cccc(F)c1` [Compound A-122, N-{3-[4-(4-chloro-2-fluorophenyl)piperidin-1-yl]phenyl}-3-fluorobenzene-1-sulfonamide] showed an AC50 of at least 10000 nM.

Compound `CC1(C)CC2(CCN(c3ccccc3NS(=O)(=O)c3ccc4c(c3)CCC(C(F)F)O4)CC2)CO1` (stereo not shown) [Compound A-690, 2-(difluoromethyl)-N-(2-{3,3-dimethyl-2-oxa-8-azaspiro[4.5]decan-8-yl}phenyl)-3,4-dihydro-2H-1-benzopyran-6-sulfonamide] showed an AC50 (Homo sapiens, HeLa, 2 h) of 2010 to 8000 nM.

For the compound `COCC1(C)CCN(c2ccccc2NS(=O)(=O)c2ccc(S(=O)(=O)N(C)C)cc2)CC1` [Compound A-438, N4-{2-[4-(methoxymethyl)-4-methylpiperidin-1-yl]phenyl}-N1,N1-dimethylbenzene-1,4-disulfonamide], the concentration at half-maximal activity (AC50) (Homo sapiens, HeLa, 2 h) was at most 2000 nM.

In the case of `CS(=O)(=O)c1ccc(S(=O)(=O)Nc2ccccc2N2CCC3(CC2)CN(CC2CC2(F)F)c2cc(F)ccc23)cc1` (stereo not shown) [Compound A-468, N-(2-{1-[(2,2-difluorocyclopropyl)methyl]-6-fluoro-1,2-dihydrospiro[indole-3,4′-piperidin]-1′-yl}phenyl)-4-methanesulfonylbenzene-1-sulfonamide], the concentration at half-maximal activity (AC50) (Homo sapiens, HeLa, 2 h) was at most 2000 nM.

For the compound `CN1CC2(CCN(c3ccccc3N(C)S(=O)(=O)c3ccc(S(=O)(=O)N(C)C)cc3)CC2)c2ccc(F)cc21` [Compound A-243, N1-(2-{6-fluoro-1-methyl-1,2-dihydrospiro[indole-3,4′-piperidin]-1′-yl}phenyl)-N1,N4,N4-trimethylbenzene-1,4-disulfonamide], the concentration at half-maximal activity (AC50) (Homo sapiens, HeLa, 2 h) was at most 2000 nM.

`C[C@@H]1CN(CC2CCN(c3c(F)cccc3[C@H](C)S(=O)(=O)c3ccc(S(=N)(=O)N(C)C)cc3)CC2)C[C@H](C)O1` (single isomer, unassigned) [Compound A-931]: the concentration at half-maximal activity (AC50) (Homo sapiens, HeLa, 2 h) was at most 2000 nM.

`CN1CCN(c2ccccc2NS(=O)(=O)c2ccc(S(=O)(=O)N(C)C)cc2)CC1` [Compound A-54, N1,N1-dimethyl-N4-[2-(4-methylpiperazin-1-yl)phenyl]benzene-1,4-disulfonamide] displayed a concentration at half-maximal activity (AC50) (Homo sapiens, HeLa, 2 h) of at least 10000 nM.

Consider `COCC1(C)CCN(c2ccccc2NC(C)c2ccc(S(=O)(=O)N(C)C)cc2)CC1` (stereo not shown) [Compound A-490, 4-[1-({2-[4-(methoxymethyl)-4-methylpiperidin-1-yl]phenyl}amino)ethyl]-N,N-dimethylbenzene-1-sulfonamide], for which the AC50 (Homo sapiens, HeLa, 2 h) was at least 10000 nM.

`CC1(C)CC2(CCN(c3ccccc3NS(=O)(=O)c3ccc4c(c3)OC(C)(C)O4)CC2)CO1` [Compound A-704, N-(2-{3,3-dimethyl-2-oxa-8-azaspiro[4.5]decan-8-yl}phenyl)-2,2-dimethyl-2H-1,3-benzodioxole-5-sulfonamide] returned an AC50 (Homo sapiens, HeLa, 2 h) of at most 2000 nM.

Turning to `C[C@@H]1COC[C@@H](C)N1C[C@H]1CCN(c2c(F)cccc2NS(=O)(=O)c2ccc(S(=O)(=O)N(C)C)cc2)C1` (relative stereo) [Compound A-897, N4-{2-[(3R)-3-{[3,5-dimethylmorpholin-4-yl]methyl}pyrrolidin-1-yl]-3-fluorophenyl}-N1,N1-dimethylbenzene-1,4-disulfonamide], under “Homo sapiens, HeLa, 2 h”, the concentration at half-maximal activity (AC50) was at most 2000 nM.

On to `O=C(NC1CC1)c1ccc(S(=O)(=O)Nc2ccccc2N2CCC(c3ccc(Cl)cc3F)CC2)cc1` [Compound A-45, 4-({2-[4-(4-chloro-2-fluorophenyl)piperidin-1-yl]phenyl}sulfamoyl)-N-cyclopropylbenzamide], for which the half-maximal activity concentration (AC50) (Homo sapiens, HeLa, 2 h) was 2010 to 8000 nM.

These data come from patent US20230104936A1, “TRPML MODULATORS” (Casma Therapeutics, Inc., priority 2019, published 2023).
